Measured values reported in patent US20230131899A1, “INHIBITORS OF MICROBIALLY INDUCED AMYLOID” (Axial Therapeutics, Inc., priority 2020, published 2023).
Read-outs that look alike come from different tables or passages of the source.

Target: T1, E. coli CsgA (Escherichia coli, UniProt P28307)
T1 construct: made in house; host or cells: E. coli NEB 3016 slyD::kan, pET11d
Experiment: In vitro ThioflavinT assay of CsgA aggregation (CsgA ThT Assay)
Type: biochemical
Settings: for remaining activity at 25 µM / CsgA ThT Assay (10 μM CsgA) % Control AUC at 1005 minutes, 25 μM (activity range) / CsgA ThT Assay (10 μM CsgA) % Control AUC at 1005 minutes, 25 μM: compound 25 μM; for remaining activity at 100 µM / CsgA ThT Assay (10 μM CsgA) % Control AUC at 1005 minutes, 100 μM (activity range) / CsgA ThT Assay (10 μM CsgA) % Control AUC at 1005 minutes, 100 μM: compound 100 μM; for CsgA ThT Assay (10 μM CsgA) % Control AUC at 1005 minutes, 25 μM / CsgA ThT Assay (10 μM CsgA) % Control AUC at 1005 minutes, 100 μM: mean AUC as % of DMSO control
Procedure, shortened: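 Purified C-terminal His-tagged CsgA, monomerised by desalting and 30-kDa filtration, at 2-20 μM with 20-40 μM ThT in 50 mM potassium phosphate pH 7.3, 1% DMSO, compounds 3.125-200 uM; room temperature, fluorescence (ex 438/em 495 nm) read every 15 min. Background-subtracted signal expressed as percent inhibition versus vehicle at 6-6.5 or 8-9 h, or as percent control AUC.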

[1] = read-out: CsgA ThT Assay (10 μM CsgA) % Control AUC at 1005 minutes, 25 μM (activity range), CsgA 10 μM, black plates, 1005 minutes, class symbol
[2] = read-out: CsgA ThT Assay (10 μM CsgA) % Control AUC at 1005 minutes, 25 μM, mean AUC as % of DMSO control, CsgA 10 μM, black plates, 1005 minutes
[3] = read-out: CsgA ThT Assay (10 μM CsgA) % Control AUC at 1005 minutes, 100 μM (activity range), CsgA 10 μM, black plates, 1005 minutes, class symbol
[4] = read-out: CsgA ThT Assay (10 μM CsgA) % Control AUC at 1005 minutes, 100 μM, mean AUC as % of DMSO control, CsgA 10 μM, black plates, 1005 minutes
[5] = read-out: CsgA ThT Assay (2 μM CsgA) % Control Bmax 25 μM, activity range, class symbol, CsgA 2 μM, white plates
[6] = read-out: CsgA ThT Assay (2 μM CsgA) % Control Bmax 25 μM, mean Bmax as percentage of DMSO control, CsgA 2 μM, white plates
[7] = read-out: CsgA ThT Assay (2 μM CsgA) % Control Bmax 100 μM, activity range, class symbol, CsgA 2 μM, white plates
[8] = read-out: CsgA ThT Assay (2 μM CsgA) % Control Bmax 100 μM, mean Bmax as percentage of DMSO control, CsgA 2 μM, white plates
[9] = CsgA 10 μM, black plates, 1005 minutes, class symbol
[10] = CsgA 10 μM, black plates, 1005 minutes

T1 sequence (P28307 23-151): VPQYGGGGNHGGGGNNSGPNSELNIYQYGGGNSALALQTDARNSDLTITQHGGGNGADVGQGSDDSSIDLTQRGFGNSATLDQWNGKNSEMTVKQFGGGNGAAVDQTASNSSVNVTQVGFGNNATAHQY

| SMILES | remaining activity at 25 µM [1] [%] | remaining activity at 25 µM [2] [%] | remaining activity at 100 µM [3] [%] | remaining activity at 100 µM [4] [%] | further results |
| --- | --- | --- | --- | --- | --- |
| O=C(O)C1CN(C[C@@H](O)CO)S(=O)(=O)c2c(-c3cccc(C(F)(F)F)c3)c(Cc3cccc4ccccc34)cc(=O)n21 (mixture of isomers) [Compound 065b, 2-((R)-2,3-dihydroxypropyl)-8-(naphthalen-1-ylmethyl)-6-oxo-9-(3-(trifluoromethyl)phenyl)-3,4-dihydro-2H,6H-pyrido[1,2-e][1,2,5]thiadiazine-4-carboxylic acid 1,1-dioxide] | > 60 | 66 | 11 to 31 | 16 |  |
| O=C(O)C1CN(C[C@H](O)[C@@H](O)[C@H](O)[C@H](O)CO)S(=O)(=O)c2c(-c3cccc(C(F)(F)F)c3)c(Cc3cccc4ccccc34)cc(=O)n21 (mixture of isomers) [Compound 066, 8-(naphthalen-1-ylmethyl)-6-oxo-2-((2S,3R,4R,5R)-2,3,4,5,6-pentahydroxyhexyl)-9-(3-(trifluoromethyl)phenyl)-3,4-dihydro-2H,6H-pyrido[1,2-e][1,2,5]thiadiazine-4-carboxylic acid 1,1-dioxide] | > 60 | 88 | 11 to 31 | 29 |  |
| O=C(O)[C@@H]1CN(Cc2ccccc2)c2c(-c3cccc(C(F)(F)F)c3)c(Cc3cccc4ccccc34)c(Cl)c(=O)n21 (single isomer, unassigned) [Compound 004a] |  |  |  |  | remaining activity at 25 µM [5]: > 60%; remaining activity at 25 µM [6]: 64%; remaining activity at 100 µM [7]: 11 to 31%; remaining activity at 100 µM [8]: 24% |
| O=C(O)[C@H]1CN(Cc2ccccc2)c2c(-c3cccc(C(F)(F)F)c3)c(Cc3cccc4ccccc34)c(Cl)c(=O)n21 (single isomer, unassigned) [Compound 004b] |  |  |  |  | remaining activity at 25 µM [5]: 31 to 60%; remaining activity at 25 µM [6]: 54%; remaining activity at 100 µM [7]: 31 to 60%; remaining activity at 100 µM [8]: 40% |
| CCCN1CC(C(=O)O)n2c(c(-c3cccc(C(F)(F)F)c3)c(Cc3cccc4ccccc34)cc2=O)S1(=O)=O (single isomer, unassigned) [Compound 016b, 8-(naphthalen-1-ylmethyl)-6-oxo-2-propyl-9-(3-(trifluoromethyl)phenyl)-3,4-dihydro-2H,6H-pyrido[1,2-e][1,2,5]thiadiazine-4-carboxylic acid 1,1-dioxide] |  |  |  |  | CsgA ThT Assay (10 μM CsgA) % Control AUC at 1005 minutes, 25 μM (activity range) [9]: (++) (% control AUC of 31 to 60%); CsgA ThT Assay (10 μM CsgA) % Control AUC at 1005 minutes, 100 μM (activity range) [9]: (+++) (% control AUC of 11 to 31%); CsgA ThT Assay (10 μM CsgA) % Control AUC at 1005 minutes, 25 μM [10]: 33%; CsgA ThT Assay (10 μM CsgA) % Control AUC at 1005 minutes, 100 μM [10]: 23% |
| Nc1c(Cc2cccc3ccccc23)c(-c2cccc(C(F)(F)F)c2)c2n(c1=O)C(C(=O)O)CS2 (single isomer, unassigned) [Compound 020b, 6-amino-7-(naphthalen-1-ylmethyl)-5-oxo-8-(3-(trifluoromethyl)phenyl)-2,3-dihydro-5H-thiazolo[3,2-a]pyridine-3-carboxylic acid] |  |  |  |  | CsgA ThT Assay (10 μM CsgA) % Control AUC at 1005 minutes, 25 μM (activity range) [9]: (+++) (% control AUC of 11 to 31%); CsgA ThT Assay (10 μM CsgA) % Control AUC at 1005 minutes, 100 μM (activity range) [9]: (+++) (% control AUC of 11 to 31%); CsgA ThT Assay (10 μM CsgA) % Control AUC at 1005 minutes, 25 μM [10]: 26%; CsgA ThT Assay (10 μM CsgA) % Control AUC at 1005 minutes, 100 μM [10]: 16% |
| CCCCCN1CC(C(=O)O)n2c(c(-c3cccc(C(F)(F)F)c3)c(Cc3cccc4ccccc34)cc2=O)S1(=O)=O (single isomer, unassigned) [Compound 025a, 8-(naphthalen-1-ylmethyl)-6-oxo-2-pentyl-9-(3-(trifluoromethyl)phenyl)-3,4-dihydro-2H,6H-pyrido[1,2-e][1,2,5]thiadiazine-4-carboxylic acid 1,1-dioxide] | 31 to 60 | 38 | > 60 |  | CsgA ThT Assay (10 μM CsgA) % Control AUC at 1005 minutes, 100 μM [10]: 143% |
| O=C(O)C1CN(Cc2ccccc2)c2c(-c3cccc(C(F)(F)F)c3)c(Cc3cccc4ccccc34)c(Br)c(=O)n21 (stereo not shown) [Compound 003, 1-benzyl-6-bromo-7-(naphthalen-1-ylmethyl)-5-oxo-8-(3-(trifluoromethyl)phenyl)-1,2,3,5-tetrahydroimidazo[1,2-a]pyridine-3-carboxylic acid] |  |  |  |  | remaining activity at 25 µM [5]: 31 to 60%; remaining activity at 25 µM [6]: 54%; remaining activity at 100 µM [7]: 11 to 31%; remaining activity at 100 µM [8]: 16% |
| O=C(O)C1CN(Cc2ccccc2)c2c(-c3cccc(C(F)(F)F)c3)c(Cc3cccc4ccccc34)c(Cl)c(=O)n21 (stereo not shown) [Compound 004, 1-benzyl-6-chloro-7-(naphthalen-1-ylmethyl)-5-oxo-8-(3-(trifluoromethyl)phenyl)-1,2,3,5-tetrahydroimidazo[1,2-a]pyridine-3-carboxylic acid] |  |  |  |  | remaining activity at 25 µM [5]: 31 to 60%; remaining activity at 25 µM [6]: 57%; remaining activity at 100 µM [7]: 11 to 31%; remaining activity at 100 µM [8]: 26% |
| CNC(=O)C1CN(C)S(=O)(=O)c2c(-c3cccc(C(F)(F)F)c3)c(Cc3cccc4ccccc34)cc(=O)n21 (stereo not shown) [Compound 031, N,2-dimethyl-8-(naphthalen-1-ylmethyl)-6-oxo-9-(3-(trifluoromethyl)phenyl)-3,4-dihydro-2H,6H-pyrido[1,2-e][1,2,5]thiadiazine-4-carboxamide 1,1-dioxide] | > 60 | 100 | > 60 | 99 |  |
| CN(C)C(=O)C1CN(C)S(=O)(=O)c2c(-c3cccc(C(F)(F)F)c3)c(Cc3cccc4ccccc34)cc(=O)n21 (stereo not shown) [Compound 032, N,N-2-trimethyl-8-(naphthalen-1-ylmethyl)-6-oxo-9-(3-(trifluoromethyl)phenyl)-3,4-dihydro-2H,6H-pyrido[1,2-e][1,2,5]thiadiazine-4-carboxamide 1,1-dioxide] | > 60 | 92 |  |  |  |
| Cn1c(=O)c2c(ncn2CCCCN2CC(C(=O)O)n3c(c(-c4cccc(C(F)(F)F)c4)c(Cc4cccc5ccccc45)cc3=O)S2(=O)=O)n(C)c1=O (stereo not shown) [Compound 033, 2-(4-(1,3-dimethyl-2,6-dioxo-1,2,3,6-tetrahydro-7H-purin-7-yl)butyl)-8-(naphthalen-1-ylmethyl)-6-oxo-9-(3-(trifluoromethyl)phenyl)-3,4-dihydro-2H,6H-pyrido[1,2-e][1,2,5]thiadiazine-4-carboxylic acid 1,1-dioxide] | > 60 | 68 | > 60 | 79 |  |
| Cn1c(=O)c2c(ncn2CCCCCN2CC(C(=O)O)n3c(c(-c4cccc(C(F)(F)F)c4)c(Cc4cccc5ccccc45)cc3=O)S2(=O)=O)n(C)c1=O (stereo not shown) [Compound 034, 2-(5-(1,3-dimethyl-2,6-dioxo-1,2,3,6-tetrahydro-7H-purin-7-yl)pentyl)-8-(naphthalen-1-ylmethyl)-6-oxo-9-(3-(trifluoromethyl)phenyl)-3,4-dihydro-2H,6H-pyrido[1,2-e][1,2,5]thiadiazine-4-carboxylic acid 1,1-dioxide] | > 60 | 62 | > 60 | 95 |  |
| Cn1c(=O)c2c(ncn2CCCCCCCN2CC(C(=O)O)n3c(c(-c4cccc(C(F)(F)F)c4)c(Cc4cccc5ccccc45)cc3=O)S2(=O)=O)n(C)c1=O (stereo not shown) [Compound 036] | > 60 | 65 |  |  |  |
